The record followed here is ChEMBL document CHEMBL1201862, “PubChem BioAssay data set” (2004).

Test systems include SNB-75; LOX IMVI; OVCAR-8; Hs-578T; SK-MEL-28; COLO 205; EKVX; RXF 393; Malme-3M; SK-OV-3; SN12C; U-251; BT-549; HT-29; NCI/ADR-RES; HCT-15; A498; OVCAR-4; PC-3; NCI-H522.
Assay in all cases: NCI anticancer screen, dose series, 48 h

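Dose response: 5 concentrations. Exposure: 48 h. Format: 96-well plates. Endpoint: linear interpolation; highest concentration if not reached. The concentration for 50% growth inhibition is given as GI50.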 The source made the active and inactive calls. Cut-off read from the data, not from the text of the source: active = GI50 up to about 1.1 µM and inactive = higher. Some results are limits rather than exact numbers.

`CCCCOC(=O)C1CN2C=CC=NC2=NC1(C(F)(F)F)C(F)(F)F` (stereo not given): the GI50 in the experiment with SNB-75, in the experiment on LOX IMVI, in the experiment with OVCAR-8, in the experiment on Hs-578T, in the experiment with SK-MEL-28 and with COLO 205 was > 100 µM (inactive) throughout. For the same molecule, the GI50 was 72.6 µM (inactive) with EKVX; > 100 µM (inactive) in the experiment with RXF 393; > 100 µM (inactive) in the experiment on Malme-3M; > 100 µM (inactive) in the experiment on SK-OV-3; > 100 µM (inactive) in the experiment with SN12C; > 100 µM (inactive) with U-251. Also, the GI50 was > 100 µM (inactive) in the experiment with BT-549; > 100 µM (inactive) in the experiment on HT-29; > 100 µM (inactive) in the experiment with NCI/ADR-RES; > 100 µM in the experiment on HCT-15; > 100 µM (inactive) in the experiment on A498; > 100 µM (inactive) in the experiment with OVCAR-4. In addition, the GI50 in the experiment with PC-3 was > 100 µM (inactive).

In the case of `O=CNc1ccc2c(c1)C(=O)c1ccccc1-2`, the GI50 in the experiment with SNB-75 is 86.3 µM (inactive); in the experiment with NCI-H522 it was 60.3 µM (inactive); in the experiment on LOX IMVI, 48.8 µM (inactive); with OVCAR-8, 50.9 µM (inactive); in the experiment with Hs-578T, 24.1 µM (inactive); in the experiment with SK-MEL-28, > 100 µM (inactive). The GI50 is 67.5 µM (inactive) in the experiment with COLO 205; 4.69 µM (inactive) in the experiment with EKVX; 65.2 µM (inactive) with RXF 393; > 100 µM (inactive) in the experiment on SK-OV-3; 30.3 µM (inactive) in the experiment with SN12C; 65 µM (inactive) in the experiment with U-251. In addition, the GI50 is > 100 µM (inactive) in the experiment on BT-549; 49 µM (inactive) in the experiment on HT-29; > 100 µM (inactive) in the experiment with NCI/ADR-RES; 59.7 µM in the experiment on HCT-15; 90.2 µM (inactive) in the experiment with A498; > 100 µM (inactive) in the experiment with OVCAR-4. Moreover, in the experiment on PC-3, the GI50 is 68.2 µM (inactive).

For `C[N+]1(CCCl)CC[N+](C)(CCCl)CC1` (stereo not given), the GI50 is 42.1 µM (inactive) in the experiment with SNB-75; > 100 µM (inactive) with LOX IMVI; > 100 µM (inactive) in the experiment with OVCAR-8; > 100 µM (inactive) with Hs-578T; > 100 µM (inactive) in the experiment on SK-MEL-28; > 100 µM (inactive) with COLO 205. For the same molecule, the GI50 with EKVX, in the experiment on RXF 393, in the experiment on Malme-3M, in the experiment on SK-OV-3, in the experiment with SN12C and in the experiment on U-251 was > 100 µM (inactive) each time. For the same molecule, the GI50 in the experiment on BT-549 was > 100 µM (inactive); with HT-29, > 100 µM (inactive); in the experiment with NCI/ADR-RES it was > 100 µM (inactive); in the experiment on HCT-15, > 100 µM; in the experiment on A498, > 100 µM (inactive); with OVCAR-4, > 100 µM (inactive). The GI50 with PC-3 was > 100 µM (inactive).

With `CS(=O)(=O)Nc1ccc(Nc2ccnc3ccc4[nH]ccc4c23)cc1`, the GI50 is 6.4 µM (inactive) in the experiment on NCI-H522; 9.12 µM (inactive) with LOX IMVI; 7.96 µM (inactive) in the experiment on OVCAR-8; 21.8 µM (inactive) with Hs-578T; 15.8 µM (inactive) with SK-MEL-28; 9.1 µM (inactive) in the experiment on COLO 205. Moreover, the GI50 was 24.8 µM (inactive) with EKVX; 14 µM (inactive) in the experiment on RXF 393; 3.88 µM (inactive) with Malme-3M; 19.5 µM (inactive) with SK-OV-3; 7.96 µM (inactive) with SN12C; 9.93 µM (inactive) in the experiment with U-251. The GI50 in the experiment on BT-549 was 19.7 µM (inactive); with HT-29, 18.4 µM (inactive); with NCI/ADR-RES, > 100 µM (inactive); in the experiment on HCT-15, 46 µM; in the experiment on A498, 18.5 µM (inactive); in the experiment on OVCAR-4, 7.83 µM (inactive). Moreover, the GI50 with PC-3 is 12.4 µM (inactive).

Consider `CN(C(=O)OC(C)(C)C)[C@H]1CCCC[C@H]1N1CCCC1`, for which the GI50 with NCI-H522, in the experiment on LOX IMVI, with OVCAR-8, with Hs-578T, in the experiment with SK-MEL-28 and with COLO 205 was > 100 µM (inactive) in each case. Besides, the GI50 in the experiment on EKVX, in the experiment with Malme-3M, in the experiment on SK-OV-3, in the experiment on SN12C, in the experiment on U-251 and in the experiment with BT-549 was > 100 µM (inactive) in each case. For the same molecule, the GI50 in the experiment with HT-29 was > 100 µM (inactive); with NCI/ADR-RES, > 100 µM (inactive); in the experiment on HCT-15, > 100 µM; with A498, > 100 µM (inactive); in the experiment on OVCAR-4, > 100 µM (inactive); in the experiment with PC-3 it was > 100 µM (inactive).

Take `N#CCCN(CCC#N)c1ccc(C(=N/c2ccc(F)cc2)/N=N/c2ccccc2)cc1`: the GI50 is 57.5 µM (inactive) in the experiment on SNB-75; 21.7 µM (inactive) in the experiment on NCI-H522; > 100 µM (inactive) with OVCAR-8; > 100 µM (inactive) in the experiment with Hs-578T; > 100 µM (inactive) in the experiment with SK-MEL-28; > 100 µM (inactive) in the experiment with COLO 205. For the same molecule, the GI50 in the experiment on EKVX was > 100 µM (inactive); in the experiment on RXF 393, 2.67 µM (inactive); in the experiment on SK-OV-3, > 100 µM (inactive); in the experiment on SN12C, > 100 µM (inactive); with U-251, 50.9 µM (inactive); in the experiment on BT-549 it was 34 µM (inactive). In addition, the GI50 in the experiment with HT-29 is > 100 µM (inactive); with NCI/ADR-RES, > 100 µM (inactive); in the experiment on HCT-15, > 100 µM; in the experiment on A498 it was > 100 µM (inactive); with OVCAR-4 it was 93.5 µM (inactive); in the experiment on PC-3, > 100 µM (inactive).

Take `CN(C)/C=C(\C(=O)c1ccccc1)n1nc(-c2ccccc2)cc1-c1ccccc1`: the GI50 in the experiment on NCI-H522, in the experiment with LOX IMVI, in the experiment with OVCAR-8, with Hs-578T, in the experiment on SK-MEL-28 and with COLO 205 was > 10 µM (inactive) throughout. Besides, the GI50 in the experiment on EKVX, in the experiment with RXF 393, with Malme-3M, in the experiment on SK-OV-3, in the experiment on SN12C and in the experiment on U-251 was > 10 µM (inactive) each time. For the same molecule, the GI50 is > 10 µM (inactive) with BT-549; > 10 µM (inactive) with HT-29; > 10 µM (inactive) in the experiment on NCI/ADR-RES; > 10 µM in the experiment on HCT-15; > 10 µM (inactive) with A498; > 10 µM (inactive) with OVCAR-4. Further, the GI50 in the experiment with PC-3 was > 10 µM (inactive).

Consider `O=C1c2ccccc2/C(=N\c2ccc3ccccc3c2)C1(C1=C(c2ccccc2)/C(=N/c2ccc3ccccc3c2)c2ccccc21)c1ccccc1` (stereo not given), for which the GI50 is 7.67 µM (inactive) in the experiment with SNB-75; 5.4 µM (inactive) in the experiment on NCI-H522; 4.01 µM (inactive) with LOX IMVI; 6.89 µM (inactive) in the experiment on OVCAR-8; 23.2 µM (inactive) with Hs-578T; 6.27 µM (inactive) with SK-MEL-28. In addition, the GI50 with COLO 205 is 6.34 µM (inactive); with EKVX, 28.8 µM (inactive); in the experiment with RXF 393, > 24 µM (inactive); in the experiment with SK-OV-3 it was 22.1 µM (inactive); in the experiment with SN12C, 9.48 µM (inactive); in the experiment on U-251, 9.75 µM (inactive). For the same molecule, the GI50 with BT-549 was 5.62 µM (inactive); in the experiment on HT-29, 3.48 µM (inactive); with NCI/ADR-RES it was 6.01 µM (inactive); in the experiment with HCT-15 it was 2.55 µM; in the experiment on A498, > 10 µM (inactive); in the experiment on OVCAR-4, 5.37 µM (inactive). Also, the GI50 in the experiment with PC-3 was 4.41 µM (inactive).

On to `O=C1Nc2ccccc2/C1=N/NC(=O)C(O)(c1ccccc1)c1ccccc1`, for which the GI50 with SNB-75 is 21.1 µM (inactive); in the experiment with LOX IMVI, 16.7 µM (inactive); in the experiment on OVCAR-8 it was 24.7 µM (inactive); in the experiment with Hs-578T it was 25.6 µM (inactive); in the experiment with SK-MEL-28 it was 17.7 µM (inactive); in the experiment with COLO 205, 18 µM (inactive). The GI50 in the experiment on EKVX was 30.5 µM (inactive); with RXF 393, 14.6 µM (inactive); in the experiment with Malme-3M, 20.7 µM (inactive); in the experiment on SK-OV-3 it was 22.9 µM (inactive); in the experiment with U-251 it was 18.2 µM (inactive); in the experiment with BT-549, 14.1 µM (inactive). The GI50 in the experiment with HT-29 was 19.5 µM (inactive); in the experiment on NCI/ADR-RES, 23.9 µM (inactive); in the experiment with HCT-15 it was 16.4 µM; with A498 it was 18.3 µM (inactive); with OVCAR-4, 24.2 µM (inactive); with PC-3, 16.6 µM (inactive).

`O=C(O)COc1cc(-c2ccccc2)nc2cc(F)ccc12`: the GI50 in the experiment with SNB-75, in the experiment on NCI-H522, in the experiment with LOX IMVI, in the experiment on OVCAR-8, in the experiment with Hs-578T and in the experiment with SK-MEL-28 was > 100 µM (inactive) each time. Further, the GI50 in the experiment with COLO 205, with EKVX, with Malme-3M, with SK-OV-3, in the experiment on SN12C and with U-251 was > 100 µM (inactive) each time. The GI50 in the experiment on BT-549 was > 100 µM (inactive); in the experiment on HT-29 it was > 100 µM (inactive); with NCI/ADR-RES, > 100 µM (inactive); in the experiment on HCT-15 it was > 100 µM; with A498 it was > 100 µM (inactive); in the experiment with OVCAR-4, > 100 µM (inactive). For the same molecule, the GI50 in the experiment with PC-3 is > 100 µM (inactive).

For `COC(=O)C1=C(OC(=O)c2ccccc2)C(C(=O)OC)[C@]2(O)[C@@H](C(=O)OC)[C@H]1C[C@@H](c1ccccc1)[C@@H]2C(=O)OC` (stereo not given in full), the GI50 in the experiment with LOX IMVI was 9.31 µM (inactive); in the experiment on OVCAR-8 it was 6.11 µM (inactive); with Hs-578T, 13.8 µM (inactive); in the experiment on SK-MEL-28, 12.2 µM (inactive); in the experiment on COLO 205, 10.2 µM (inactive); in the experiment with EKVX, 34 µM (inactive). Moreover, the GI50 with RXF 393 is 3.14 µM (inactive); in the experiment on Malme-3M it was 13.5 µM (inactive); in the experiment on SK-OV-3, 10.6 µM (inactive); in the experiment with SN12C it was 8.43 µM (inactive); with U-251, 5.24 µM (inactive); in the experiment with BT-549, 12.2 µM (inactive). For the same molecule, the GI50 with HT-29 is 15.7 µM (inactive); in the experiment on NCI/ADR-RES, 2.62 µM (inactive); in the experiment with HCT-15, 7.82 µM; with A498, 16.3 µM (inactive); with OVCAR-4 it was 10.6 µM (inactive); in the experiment on PC-3, 4.82 µM (inactive).
